The values that follow come from patent US8163909B2, “Substituted hydroxyethyl amine compounds as beta-secretase modulators and methods of use” (Amgen Inc., priority 2007, dated 2012).

In data set [1] the target is Beta Secretase enzyme (BACE) (Homo sapiens, UniProt P56817). In words: In vitro enzymatic BACE FRET (fluorescence resonance energy transfer) assay.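 Note: fluorescence read after 1 h with 50 nM quenched peptide substrate spanning the BACE cleavage site, in pH 4.2 acetate buffer containing 10% DMSO and nonionic detergent.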 The class given is biochemical. The conditions noted are these: read-out: BACE1 FRET assay.
Data set [2] relates to Aβ40 in conditioned medium of cells stably expressing Amyloid Precursor Protein (APP). In words: In vitro BACE cell-based assay (Aβ40 in conditioned medium, sandwich ELISA).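 Note: compounds added as a dilution series, secreted peptide quantified by europium time-resolved fluorescence readout, potency fitted from percent of control versus compound concentration.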 The conditions noted are these: Homo sapiens, read-out: HEK cell assay. (ELISA stands for enzyme-linked immunosorbent assay.)
The next data set concerns Abeta peptide. In words: In vivo inhibition of beta-secretase (reduction of Abeta peptide in brain and cerebrospinal fluid).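 Note: abeta peptide quantified by sandwich ELISA with electrochemiluminescence readout in rat brain supernatant or CSF, relative to vehicle-dosed control animals.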 Further details: species or system rat. The conditions noted are these: Rattus norvegicus, po, 4 h, orally administered at 30 mg/kg dose, measured after 4 hours.
A further data set concerns the target CYP3A4 (CYP3A) (Homo sapiens, UniProt P08684). In words: in vitro. The conditions noted are these: microsomes, pH 7.4.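 Note: inhibition of CYP3A-mediated 1-hydroxymidazolam formation after 10 min incubation with NADPH, quantified by HPLC MS relative to metabolite produced without test compound.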
Data set [3] can be described thus: Microsomal stability assay, rat liver microsomes.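 Note: rat liver microsomes (0.25 mg/mL) with about 1 µM compound plus 1 mM NADPH, pH 7.4, 37 °C for 30 min, parent left measured by LC-MS/MS against 0 min.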
Data set [4] in a line: Microsomal stability assay, human liver microsomes. (In general: Microsomes from liver hold many membrane-bound enzymes, among them those of drug oxidation.)
The next data set addresses CYP2D6 (Homo sapiens, UniProt P10635). In words: CYP2D6 inhibition assay (bufuralol, pooled human liver microsomes).
The mark [5] stands for this setting: HEK293, HEK cell-based assay IC50.
The mark [6] stands for this setting: rat brain, read-out: percent reduction of abeta peptide in the brain of the rat.
Where [7] appears, read: rat cerebrospinal fluid, read-out: percent reduction of abeta peptide in the cerebrospinal fluid of the rat.
Setting [8] is: 2D6 IC50 (uM), CYP2D6 inhibition.
[9] abbreviates: BACE enzyme assay, IC50's in uM.
Where [10] appears, read: HEK293, HEK cell-based assay, IC50's in uM.
Setting [11] is: 2D6 IC50 (uM), CYP enzyme inhibition.

Where two headings read alike, the source gives them in different places. Where only a bound is given, the exact number is not on record here.
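Throughout, for HLM: pooled human liver microsomes at 0.25 mg/mL with 1 µM compound and NADPH at 37 °C, pH 7.4, for 30 min, unchanged parent quantified by LC-MS/MS against the 0 min sample.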

CYP2D6, sequence (P10635 whole entry): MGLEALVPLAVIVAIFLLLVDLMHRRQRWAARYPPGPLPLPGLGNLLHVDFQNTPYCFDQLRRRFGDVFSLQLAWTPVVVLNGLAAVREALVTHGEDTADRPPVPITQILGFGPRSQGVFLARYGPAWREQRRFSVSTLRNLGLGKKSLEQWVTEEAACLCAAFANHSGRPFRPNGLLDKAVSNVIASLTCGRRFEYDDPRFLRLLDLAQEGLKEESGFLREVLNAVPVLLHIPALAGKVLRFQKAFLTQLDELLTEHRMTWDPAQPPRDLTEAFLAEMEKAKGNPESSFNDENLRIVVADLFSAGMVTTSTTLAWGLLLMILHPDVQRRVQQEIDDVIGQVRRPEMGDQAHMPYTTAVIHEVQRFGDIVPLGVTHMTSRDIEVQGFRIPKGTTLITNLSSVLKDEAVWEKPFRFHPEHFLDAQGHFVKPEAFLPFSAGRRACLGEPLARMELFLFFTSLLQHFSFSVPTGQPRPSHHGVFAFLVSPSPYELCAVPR
Beta Secretase enzyme (BACE), sequence (P56817 46-501): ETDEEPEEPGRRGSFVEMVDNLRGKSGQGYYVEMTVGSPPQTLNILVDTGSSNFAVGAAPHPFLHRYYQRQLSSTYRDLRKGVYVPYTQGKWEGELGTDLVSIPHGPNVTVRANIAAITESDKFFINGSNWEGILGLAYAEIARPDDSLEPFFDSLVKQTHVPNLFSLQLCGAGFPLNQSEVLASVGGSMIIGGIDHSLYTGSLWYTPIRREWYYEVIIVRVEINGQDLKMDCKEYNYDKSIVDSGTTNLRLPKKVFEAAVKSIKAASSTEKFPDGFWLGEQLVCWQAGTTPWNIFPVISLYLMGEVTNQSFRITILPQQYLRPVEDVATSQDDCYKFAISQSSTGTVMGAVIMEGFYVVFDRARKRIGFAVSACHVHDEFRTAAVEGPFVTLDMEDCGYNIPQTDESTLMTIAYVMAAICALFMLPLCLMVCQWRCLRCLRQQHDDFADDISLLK
CYP3A4 (CYP3A), sequence (P08684 2-503): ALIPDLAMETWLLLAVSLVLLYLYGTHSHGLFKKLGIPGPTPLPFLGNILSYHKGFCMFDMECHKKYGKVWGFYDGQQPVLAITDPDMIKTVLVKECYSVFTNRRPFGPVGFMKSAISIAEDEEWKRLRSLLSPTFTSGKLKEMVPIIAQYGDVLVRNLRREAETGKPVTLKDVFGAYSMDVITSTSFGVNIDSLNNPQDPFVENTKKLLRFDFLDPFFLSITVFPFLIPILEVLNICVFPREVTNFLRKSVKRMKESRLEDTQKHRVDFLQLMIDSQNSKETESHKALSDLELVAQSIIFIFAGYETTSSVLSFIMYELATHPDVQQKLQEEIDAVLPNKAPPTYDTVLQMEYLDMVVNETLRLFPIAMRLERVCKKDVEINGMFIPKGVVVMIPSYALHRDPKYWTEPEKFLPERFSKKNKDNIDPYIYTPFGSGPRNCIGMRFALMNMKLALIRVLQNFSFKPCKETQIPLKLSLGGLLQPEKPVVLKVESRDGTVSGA

Turning to `COCC(=O)N[C@@H](Cc1ccc(F)c(-c2nccs2)c1)[C@H](O)CN[C@H]1CC2(CCC2)Oc2ncc(CC(C)(C)F)cc21` [Example 743], the IC50 in data set [1] (BACE enzyme assay IC50) was 0.016 µM; in data set [2] (setting [5]), 0.037 µM; against CYP3A4 (CYP3A) it was no more than 30 nM; on CYP2D6 (setting [8]), 0.6 µM. Also, the inhibition in vivo at 30 mg/kg in the data set with Abeta peptide (setting [6]) is no less than 30%; in the data set on Abeta peptide (setting [7]) it was 10 to 80%. Moreover, the “RLM” value in data set [3] (rat liver microsomes) is 31 µL/min/mg. In data set [4] (human liver microsomes), the “HLM” value stood at 22 µL/min/mg.

For `COCC(=O)N[C@@H](Cc1ccc(F)cc1)[C@H](O)CN[C@H]1CC(C)(C)Oc2c1cc(CC(C)C)c1c2OCO1` [Example 747], the IC50 in data set [1] (BACE enzyme assay IC50) worked out at 0.209 µM; in data set [2] (setting [5]), 0.243 µM; at CYP3A4 (CYP3A), 200 nM; on CYP2D6 (setting [8]), 9.1 µM. The inhibition in vivo at 30 mg/kg in the data set on Abeta peptide (setting [7]) is 10 to 80%. For the same molecule, the “RLM” value in data set [3] (rat liver microsomes) came to 217 µL/min/mg. The “HLM” value in data set [4] (human liver microsomes) worked out at 125 µL/min/mg.

Regarding `COCC(=O)N[C@@H](Cc1cc(F)cc(-c2nccs2)c1)[C@H](O)CNC1CC2(CCC2)Oc2ncc(CC(C)(F)F)cc21` (stereo partly drawn) [Example 764, N-((1S,2R)-3-((6′-(2,2-difluoropropyl)-3′,4′-dihydrospiro[cyclobutane-1,2′-pyrano[2,3-b]pyridin]-4′-yl)amino)-1-(3-fluoro-5-(1,3-thiazol-2-yl)benzyl)-2-hydroxypropyl)-2-methoxyacetamide], the IC50 in data set [1] (setting [9]) came out at 0.011 µM; in data set [2] (setting [10]), 0.018 µM; at CYP3A4 (CYP3A), 300 nM; against CYP2D6 (setting [11]), 0.7 µM. Further, the inhibition in vivo at 30 mg/kg in the data set with Abeta peptide (setting [7]) was in the range of 10 to 80%. In addition, the “RLM” value in data set [3] (rat liver microsomal data) was 33 µL/min/mg. In addition, the “HLM” value in data set [4] (human liver microsomal data) was found to be 41 µL/min/mg.

On to `COCC(=O)N[C@@H](Cc1cc(F)cc(-c2nccs2)c1)[C@H](O)CN[C@H]1CC2(CCC2)Oc2cnc(CC(C)(C)C)cc21` [Example 782, N-((1S,2R)-3-(((4′S)-6′-(2,2-dimethylpropyl)-3′,4′-dihydrospiro[cyclobutane-1,2′-pyrano[2,3-c]pyridin]-4′-yl)amino)-1-(3-fluoro-5-(1,3-thiazol-2-yl)benzyl)-2-hydroxypropyl)-2-methoxyacetamide], for which the IC50 was determined as 0.015 µM in data set [1] (setting [9]), 0.036 µM in data set [2] (setting [10]), 300 nM against CYP3A4 (CYP3A) and 0.4 µM against CYP2D6 (setting [11]). In addition, the inhibition in vivo at 30 mg/kg is 5 to 80% with Abeta peptide (setting [6]) and 10 to 80% in the data set with Abeta peptide (setting [7]). In data set [3] (rat liver microsomal data), the “RLM” value is 130 µL/min/mg. Further, in data set [4] (human liver microsomal data), the “HLM” value is 94 µL/min/mg.

On to `COC(OC)C(=O)N[C@@H](Cc1cccc(-c2nccs2)c1)[C@H](O)CN[C@H]1CC2(CCC2)Oc2ncc(CC(C)C)cc21` [Example 816, N-((1S,2R)-2-hydroxy-3-(((4′S)-6′-(2-methylpropyl)-3′,4′-dihydrospiro[cyclobutane-1,2′-pyrano[2,3-b]pyridin]-4′-yl)amino)-1-(3-(1,3-thiazol-2-yl)benzyl)propyl)-2,2-dimethoxyacetamide], for which the IC50 is 0.008 µM in data set [1] (setting [9]), 0.024 µM in data set [2] (setting [10]), 300 nM against CYP3A4 (CYP3A) and 0.7 µM against CYP2D6 (setting [11]). The inhibition in vivo at 30 mg/kg with Abeta peptide (setting [6]) lay within 5 to 80%; in the data set with Abeta peptide (setting [7]), 10 to 80%. In data set [3] (rat liver microsomal data), the “RLM” value is 44 µL/min/mg. Besides, the “HLM” value in data set [4] (human liver microsomal data) stood at 46 µL/min/mg.

In the case of `COC(OC)C(=O)N[C@@H](Cc1cccc(-c2ncco2)c1)[C@H](O)CN[C@H]1CC2(CCC2)Oc2ncc(CC(C)(C)C)cc21` [Example 826, N-((1S,2R)-3-(((4′S)-6′-(2,2-dimethylpropyl)-3′,4′-dihydrospiro[cyclobutane-1,2′-pyrano[2,3-b]pyridin]-4′-yl)amino)-2-hydroxy-1-(3-(1,3-oxazol-2-yl)benzyl)propyl)-2,2-dimethoxyacetamide], the IC50 came out at 0.012 µM in data set [1] (setting [9]), 0.013 µM in data set [2] (setting [10]), 200 nM at CYP3A4 (CYP3A) and 0.9 µM against CYP2D6 (setting [11]). Besides, the figures for the inhibition in vivo at 30 mg/kg in the data set on Abeta peptide (setting [6]) and in the data set with Abeta peptide (setting [7]) were 5 to 80% and 10 to 80%, respectively. In data set [3] (rat liver microsomal data), the “RLM” value worked out at 55 µL/min/mg. The “HLM” value in data set [4] (human liver microsomal data) is 66 µL/min/mg.

As to `C#Cc1cccc(C[C@H](NC(=O)COC)[C@H](O)CN[C@H]2CC3(CCC3)Oc3ncc(CC(C)(F)F)cc32)c1` [Example 829], the IC50 turned out to be 0.007 µM in data set [1] (setting [9]), 0.016 µM in data set [2] (setting [10]), 200 nM on CYP3A4 (CYP3A) and 2.3 µM against CYP2D6 (setting [11]). Further, the inhibition in vivo at 30 mg/kg with Abeta peptide (setting [6]) was no less than 30%. The “RLM” value in data set [3] (rat liver microsomal data) amounted to 23 µL/min/mg. Besides, in data set [4] (human liver microsomal data), the “HLM” value stood at 40 µL/min/mg.

Consider `CO[C@H](C)C(=O)N[C@@H](Cc1cccc(-c2nccs2)c1)[C@H](O)CN[C@H]1CC2(CCC2)Oc2ncc(CC(C)(C)F)cc21` [Example 831, (2R)-N-((1S,2R)-3-(((4′S)-6′-(2-fluoro-2-methylpropyl)-3′,4′-dihydrospiro[cyclobutane-1,2′-pyrano[2,3-b]pyridin]-4′-yl)amino)-2-hydroxy-1-(3-(1,3-thiazol-2-yl)benzyl)propyl)-2-methoxypropanamide], for which the IC50 was 0.024 µM in data set [1] (setting [9]), 0.047 µM in data set [2] (setting [10]), 200 nM against CYP3A4 (CYP3A) and 0.8 µM against CYP2D6 (setting [11]). Further, in the data set with Abeta peptide (setting [7]), the inhibition in vivo at 30 mg/kg was 10 to 80%. Further, in data set [3] (rat liver microsomal data), the “RLM” value turned out to be 45 µL/min/mg. For the same molecule, the “HLM” value in data set [4] (human liver microsomal data) was found to be 21 µL/min/mg.

Take `CO[C@H](C)C(=O)N[C@@H](Cc1cccc(-c2ncco2)c1)[C@H](O)CN[C@H]1CC2(CCC2)Oc2ncc(CC(C)(C)C)cc21` [Example 836, (2R)-N-((1S,2R)-3-(((4′S)-6′-(2,2-dimethylpropyl)-3′,4′-dihydrospiro[cyclobutane-1,2′-pyrano[2,3-b]pyridin]-4′-yl)amino)-2-hydroxy-1-(3-(1,3-oxazol-2-yl)benzyl)propyl)-2-methoxypropanamide]: the IC50 was determined as 0.013 µM in data set [1] (setting [9]), 0.015 µM in data set [2] (setting [10]), 200 nM on CYP3A4 (CYP3A) and 0.7 µM at CYP2D6 (setting [11]). The inhibition in vivo at 30 mg/kg in the data set on Abeta peptide (setting [7]) lay within 10 to 80%. The “RLM” value in data set [3] (rat liver microsomal data) was found to be 56 µL/min/mg. Further, the “HLM” value in data set [4] (human liver microsomal data) turned out to be 56 µL/min/mg.

Take `C#Cc1cc(C[C@H](NC(=O)COCC)[C@H](O)CN[C@H]2CC3(CCC3)Oc3ncc(CC(C)(C)C)cc32)ccc1F` [Example 837]: the IC50 in data set [1] (setting [9]) came out at 0.007 µM; in data set [2] (setting [10]), 0.023 µM; on CYP3A4 (CYP3A), 100 nM; at CYP2D6 (setting [11]), 1.6 µM. In addition, the inhibition in vivo at 30 mg/kg in the data set with Abeta peptide (setting [7]) was in the range of 10 to 80%. The “RLM” value in data set [3] (rat liver microsomal data) came to 72 µL/min/mg. In addition, the “HLM” value in data set [4] (human liver microsomal data) turned out to be 29 µL/min/mg.

For `C#Cc1cccc(C[C@H](NC(=O)C(OC)OC)[C@H](O)CN[C@H]2CC3(CCC3)Oc3ncc(CC(C)(C)C)cc32)c1` [Example 844], the IC50 in data set [1] (setting [9]) worked out at 0.005 µM; in data set [2] (setting [10]), 0.006 µM; against CYP3A4 (CYP3A), 100 nM; against CYP2D6 (setting [11]), 1.5 µM. Further, in the data set with Abeta peptide (setting [7]), the inhibition in vivo at 30 mg/kg was no less than 50%. Further, the “RLM” value in data set [3] (rat liver microsomal data) was found to be 44 µL/min/mg. Besides, in data set [4] (human liver microsomal data), the “HLM” value worked out at 32 µL/min/mg.

As for `CNc1nc(CC(C)(C)C)cc2c1OC1(CCC1)C[C@@H]2NC[C@@H](O)[C@H](Cc1cc(F)cc(-c2nccs2)c1)NC(=O)COC` [Example 847], the IC50 in data set [1] (setting [9]) was found to be 0.044 µM; in data set [2] (HEK293, cell-based assay, HEK cells, IC50's in uM) it was 0.01 µM; at CYP3A4 (CYP3A) it was 400 nM; against CYP2D6 (2D6 IC50, CYP enzyme inhibition), 0.8 µM. The inhibition in vivo at 30 mg/kg was 5 to 80% in the data set on Abeta peptide (setting [6]) and no less than 50% in the data set with Abeta peptide (setting [7]). This molecule returned an RLM in data set [3] (rat liver microsomal data) of 201 µL/min/mg. The same molecule gave an HLM in data set [4] (human liver microsomal data) of 102 µL/min/mg.
